Experimental data from publication PMC10302047, “Structure–Activity Relationship Studies of Indolglyoxyl-Polyamine Conjugates as Antimicrobials and Antibiotic Potentiators” (Pharmaceuticals, 2023).
pIC50: −log10 of the molar value. Converted amounts (≈) assume the structure as drawn.

Tests used:
S. aureus ATCC 25923 = experiment: Antimicrobial susceptibility (MIC), S. aureus; type: cell-based, Staphylococcus aureus; conditions: Staphylococcus aureus, ATCC25923; S. aureus ATCC 25923; mean (n = 3)
Protocol: (§1) The susceptibility of bacterial strains S. aureus (ATCC 25923), E. coli (ATCC 25922) and P. aeruginosa (ATCC 27853) to antibiotics and compounds was determined according to previously reported protocols. Additional antimicrobial evaluation against MRSA (ATCC 43300) and C. albicans (ATCC 90028) was undertaken at the Community for Open Antimicrobial Drug Discovery at The University of Queensland (Australia) according to their standard protocols as reported previously.

MRSA ATCC 43300 = experiment: Antimicrobial susceptibility (MIC), MRSA; type: cell-based; conditions: Staphylococcus aureus; MRSA ATCC 43300; mean (n = 2); read-out: MIC MRSA
Protocol: as §1

P. aeruginosa ATCC 27853 [1] = experiment: Antimicrobial susceptibility (MIC), P. aeruginosa; type: cell-based; conditions: Pseudomonas aeruginosa, ATCC27853, mean (n = 3), read-out: MIC P. a
Protocol: as §1

E. coli ATCC 25922 = experiment: Antimicrobial susceptibility (MIC), E. coli; type: cell-based; conditions: Escherichia coli, ATCC25922, mean (n = 3)
Protocol: as §1

C. albicans ATCC 90028 = experiment: Antifungal susceptibility (MIC), C. albicans; type: cell-based; conditions: Candida albicans, ATCC90028, mean (n = 2)
Protocol: as §1

[2] = Cytotoxicity assay HEK293; type: cell-based, human; conditions: human, HEK293 cells, mean (n = 2), read-out: Cyto. IC50 (concentration of compound at 50% cytotoxicity)
Protocol: Cytotoxicity assays were conducted according to previously reported protocols.

human red blood cells = experiment: Hemolytic assay; type: cell-based; conditions: mean (n = 2)
Protocol: Hemolysis assays were conducted according to previously reported protocols.

P. aeruginosa ATCC 27853 [3] = experiment: Antibiotic potentiation (MIC of antibiotics in the presence of synergizing compounds), P. aeruginosa; type: cell-based, Pseudomonas aeruginosa; conditions: concentration required to restore doxycycline activity at 2 µg/mL (4.5 µM) against P. aeruginosa ATCC 27853

SMILES | MIC (S. aureus ATCC 25923) | MIC (MRSA ATCC 43300) | MIC (P. aeruginosa ATCC 27853 [1]) | MIC (E. coli ATCC 25922) | MIC (C. albicans ATCC 90028) | pIC50 [2] | Hem. HC10 (concentration of compound at 10% hemolytic activity) (human red blood cells) | Conc (µM) for Potentiation of doxycycline (P. aeruginosa ATCC 27853 [3])
O=C(NCCCNCCCCCCNCCCNC(=O)C(=O)c1c[nH]c2ccc(Br)cc12)C(=O)c1c[nH]c2ccc(Br)cc12.O=C(O)C(F)(F)F.O=C(O)C(F)(F)F [Compound 18a, N^1,N^6-Bis(3-(2-(5-bromo-1H-indol-3-yl)-2-oxoacetamido)propyl)hexane-1,6-diaminium 2,2,2-trifluoroacetate] | 1.56 µM | 4.17 µM | 50 µM | 6.25 µM | 16.7 µM | 5.05 | >33 µM | 6.5 µM
O=C(NCCCNCCCCCCCNCCCNC(=O)C(=O)c1c[nH]c2ccc(Br)cc12)C(=O)c1c[nH]c2ccc(Br)cc12.O=C(O)C(F)(F)F.O=C(O)C(F)(F)F [Compound 18b, N^1,N^7-Bis(3-(2-(5-bromo-1H-indol-3-yl)-2-oxoacetamido)propyl)heptane-1,7-diaminium 2,2,2-trifluoroacetate] | 6.4 µM | 4.1 µM | 51 µM | 51 µM | 16 µM | 4.89 | >33 µM | 12.9 µM
O=C(NCCCNCCCCCCCCNCCCNC(=O)C(=O)c1c[nH]c2ccc(Br)cc12)C(=O)c1c[nH]c2ccc(Br)cc12.O=C(O)C(F)(F)F.O=C(O)C(F)(F)F [Compound 18c, N^1,N^8-Bis(3-(2-(5-bromo-1H-indol-3-yl)-2-oxoacetamido)propyl)octane-1,8-diaminium 2,2,2-trifluoroacetate] | 25 µM | 8.1 µM | > 200 µM | > 200 µM | 32 µM | 4.74 | >32 µM | >200 µM
O=C(NCCCNCCCCCCCCCCNCCCNC(=O)C(=O)c1c[nH]c2ccc(Br)cc12)C(=O)c1c[nH]c2ccc(Br)cc12.O=C(O)C(F)(F)F.O=C(O)C(F)(F)F [Compound 18d, N^1,N^10-Bis(3-(2-(5-bromo-1H-indol-3-yl)-2-oxoacetamido)propyl)decane-1,10-diaminium 2,2,2-trifluoroacetate] | 6.16 µM | 7.88 µM | 200 µM | 98 µM | 32 µM | 4.80 | >32 µM | 25 µM
O=C(NCCCNCCCCCCCCCCCCNCCCNC(=O)C(=O)c1c[nH]c2ccc(Br)cc12)C(=O)c1c[nH]c2ccc(Br)cc12.O=C(O)C(F)(F)F.O=C(O)C(F)(F)F [Compound 18e, N^1,N^12-Bis(3-(2-(5-bromo-1H-indol-3-yl)-2-oxoacetamido)propyl)dodecane-1,12-diaminium 2,2,2-trifluoroacetate] | 5.99 µM | 3.84 µM | 96 µM | 24 µM | 31 µM | 5.07 | 20 µM | 24 µM
COc1ccc2[nH]cc(C(=O)C(=O)NCCCNCCCCCCCNCCCNC(=O)C(=O)c3c[nH]c4ccc(OC)cc34)c2c1.O=C(O)C(F)(F)F.O=C(O)C(F)(F)F [Compound 19b, N^1,N^7-Bis(3-(2-(5-methoxy-1H-indol-3-yl)-2-oxoacetamido)propyl)heptane-1,7-diaminium 2,2,2-trifluoroacetate] | 57 µM | 37 µM | > 200 µM | > 200 µM | 37 µM | < 4.43 | >37 µM | 114 µM
COc1ccc2[nH]cc(C(=O)C(=O)NCCCNCCCCCCCCNCCCNC(=O)C(=O)c3c[nH]c4ccc(OC)cc34)c2c1 [Compound 19c] | > 100 µM | > 36 µM | > 100 µM | > 100 µM | 36 µM (≈ 23.8 µg/mL) | 4.74 | 26 µM | 25 µM
COc1ccc2[nH]cc(C(=O)C(=O)NCCCNCCCCCCCCCCNCCCNC(=O)C(=O)c3c[nH]c4ccc(OC)cc34)c2c1.O=C(O)C(F)(F)F.O=C(O)C(F)(F)F [Compound 19d, N^1,N^10-Bis(3-(2-(5-methoxy-1H-indol-3-yl)-2-oxoacetamido)propyl)decane-1,10-diaminium 2,2,2-trifluoroacetate] | 12.5 µM | 17.4 µM | > 200 µM | 50 µM | 35 µM | 5.17 | >35 µM | >200 µM
COc1ccc2[nH]cc(C(=O)C(=O)NCCCNCCCCCCCCCCCCNCCCNC(=O)C(=O)c3c[nH]c4ccc(OC)cc34)c2c1 [Compound 19e] | 12.5 µM (≈ 8.96 µg/mL) | 34 µM (≈ 24.4 µg/mL) | > 200 µM | 100 µM (≈ 71.7 µg/mL) | 34 µM (≈ 24.4 µg/mL) | 5.07 | >34 µM | >200 µM
O=C(NCCCNCCCCCCCNCCCNC(=O)C(=O)c1c[nH]c2c(F)cccc12)C(=O)c1c[nH]c2c(F)cccc12.O=C(O)C(F)(F)F.O=C(O)C(F)(F)F [Compound 21b, N^1,N^7-Bis(3-(2-(7-fluoro-1H-indol-3-yl)-2-oxoacetamido)propyl)heptane-1,7-diaminium 2,2,2-trifluoroacetate] | 7.3 µM | 18.8 µM | > 200 µM | > 200 µM | 38 µM | 4.96 | >38 µM | 7.3 µM
O=C(NCCCNCCCCCCCCNCCCNC(=O)C(=O)c1c[nH]c2c(F)cccc12)C(=O)c1c[nH]c2c(F)cccc12.O=C(O)C(F)(F)F.O=C(O)C(F)(F)F [Compound 21c, N^1,N^8-Bis(3-(2-(7-fluoro-1H-indol-3-yl)-2-oxoacetamido)propyl)octane-1,8-diaminium 2,2,2-trifluoroacetate] | 29 µM | 18.5 µM | > 200 µM | > 200 µM | > 37 µM | 5.04 | >37 µM | 58 µM
O=C(NCCCNCCCCCCCCCCNCCCNC(=O)C(=O)c1c[nH]c2c(F)cccc12)C(=O)c1c[nH]c2c(F)cccc12.O=C(O)C(F)(F)F.O=C(O)C(F)(F)F [Compound 21d, N^1,N^10-Bis(3-(2-(7-fluoro-1H-indol-3-yl)-2-oxoacetamido)propyl)decane-1,10-diaminium 2,2,2-trifluoroacetate] | 3.12 µM | 4.48 µM | > 200 µM | 6.25 µM | 36 µM | 5.33 | >36 µM | 100 µM
O=C(NCCCNCCCCCCCCCCCCNCCCNC(=O)C(=O)c1c[nH]c2c(F)cccc12)C(=O)c1c[nH]c2c(F)cccc12.O=C(O)C(F)(F)F.O=C(O)C(F)(F)F [Compound 21e, N^1,N^12-Bis(3-(2-(7-fluoro-1H-indol-3-yl)-2-oxoacetamido)propyl)dodecane-1,12-diaminium 2,2,2-trifluoroacetate] | 27.2 µM | 4.34 µM | > 220 µM | > 220 µM | 35 µM | 5.19 | >35 µM | >200 µM
